The test system of assay [1] is MG-63. Put plainly: Cytotoxicity against human MG63 cells up to 1000 ug/ml after 48 hrs by MTT assay. The assay is classed as functional, cell-based.
Assay [2] deals with MG-63. Description: Increase in alkaline phosphatase activity in human MG63 cells at 5 ug/mL after 24 hrs. The assay is classed as functional, cell-based.
The subject of assay [3] is MG-63. Description: Increase in alkaline phosphatase activity in human MG63 cells at 1000 ug/mL after 24 hrs. It is filed as functional, cell-based.
In assay [4] the test system is MG-63. Put plainly: Effect on osteocalcin secretion in human MG63 cells after 4 days. It is filed as functional, cell-based.
The test system of assay [5] is MG-63. Description: Increase of mineralization in human MG63 cells after 7 days. The assay is classed as functional, cell-based.
The test system of assay [6] is MG-63. Description: Increase of collagen synthesis in human MG63 cells after 7 days. The assay is classed as functional, cell-based.
The test system of assay [7] is RAW. Description: Inhibition of lipopolysaccharide stimulated TNFalpha synthesis in mouse RAW 264.7 cells. It is filed as functional, cell-based.
Assay [8] has as its system RAW. Description: Reduction of lipopolysaccharide stimulated IL1-beta synthesis in mouse RAW 264.7 cells. The assay is classed as functional, cell-based.
Assay [9] deals with RAW. Put plainly: Reduction of lipopolysaccharide stimulated PGE2 synthesis in mouse RAW 264.7 cells at 10 ug/mL. The assay is classed as functional, cell-based.
For assay [10], the system named is MG-63. Put plainly: Increase of collagen synthesis in human MG63 cells at 10 ug/mL relative to glucosamine. It is filed as functional.
The subject of assay [11] is MG-63. Description: Increase in alkaline phosphatase activity in human MG63 cells after 24 hrs. It is filed as functional, cell-based.
In assay [12] the test system is MG-63. Description: Effect on alkaline phosphatase activity in human MG63 cells at 100 ug/mL after 24 hrs. It is filed as functional, cell-based.

Active and inactive are the calls of the source. No cut-off for these calls is given here.

`N[C@@H]1[C@@H](O)[C@H](O)[C@@H](COS(=O)(=O)O)O[C@H]1O`: the Activity entry was “Not toxic” in [1], “Dose-dependent effect” in assay [4], “Dose-dependent effect” in [6] and “Dose-dependent effect” in assay [11]. Besides, the outcome in [2], in [5], in assay [7], in assay [8] and in assay [9] was Active. Moreover, in assay [3], the outcome was inactive. For the same compound, the Fold change in assay [10] was 3.
`N[C@@H]1[C@@H](O)[C@H](O)[C@@H](CO)O[C@H]1O`: the Activity result in assay [4] was “Dose-dependent effect”. For the same compound, the outcome in [7] was Active. The outcome in [12] was inactive.

(Values after ChEMBL document CHEMBL1148852, “Glucosamine sulfate promotes osteoblastic differentiation of MG-63 cells via anti-inflammatory effect” (2007).)
